This is an account of results in article PMC7910999, “Hyaluronidase Inhibitor-Incorporated Cross-Linked Hyaluronic Acid Hydrogels for Subcutaneous Injection” (Pharmaceutics, 2021).

Molecules are shown by their SMILES. ≈ marks a conversion by molar mass, not a printed value. Where two headings read alike, the source gives them in different places.

The conditions of data set [1]: rats, intragastric administration; cited from earlier work.
A short description of data set [2]: In vitro release of QTP (dialysis bag method). It is filed as physicochemical. Conditions: within 8 h; PBS with 0.5% SLS, 37 °C. The procedure: The release of QTP from the cHA hydrogels was measured using the dialysis bag method. Briefly, aliquots of the free QTP solution (in ethanol/PEG 400/PBS = 1/1/2 (v/v/v)) and the QTP-loaded hydrogels (i.e., cHA/QTP and cHA/QTP/QCT5) (corresponding to 12 mg of QTP) were loaded into dialysis membranes (2 kDa of molecular weight cut-off; Cellu Sep H1, Membrane Filtration Products Ltd., Seguin, TX, USA). In case of cHA/QTP/QCT5 + HAase group, HAase (1 mg/mL) was added to the cHA/QTP/QCT5 hydrogel. Each membrane sac was immersed in PBS (20 mL) containing 0.5% SLS, and then they were agitated in a shaking water bath (37 °C) at 50 rpm. Aliquots of the release media were collected at 0.5, 1, 2, 4, 6, 8, 24, 48, 72, 96, 144, 168, 192, 288, 336, and 360 h, and the same volume of fresh medium was replenished each time. The QTP concentrations in the release media were quantitatively determined by the HPLC method described above.

Data set [3] is described as follows: Solubility in various media (HPLC). It is filed as physicochemical. To be noted: for solubility: unpublished data. Here is the method: In order to select a solvent for hydrating (i.e., swelling) the cHA gel, the solubilities of QTP hemifumarate and the QTP base in distilled water (DW), phosphate-buffered saline (PBS; pH = 7.4), and ethanol (EtOH) were determined by high-performance liquid chromatography (HPLC). Briefly, an excess amount of QTP hemifumarate or QTP base was added to 1 mL of each solvent and completely vortex-mixed with vortex shaker (Vortex-Genie 2; Scientific Industries, Inc., Bohemia, NY, USA) at […] 37 °C for 1 day. Upon reaching the steady state, each sample was centrifuged and filtered to eliminate undissolved fractions. An HPLC system equipped with an automatic injector (Waters 717 plus), a pump (Waters 1515; Waters Company, Milford, MA, USA), and a UV/VIS detector (Waters 2487) connected with a reverse-phase C18 column (Kinetex C18; 250 × 4.6 mm, 5 μm; Phenomenex, Torrance, CA, USA) was utilized for measuring the concentration of QTP in each medium. The flow rate of the mobile phase and the injection volume of the specimen were set to 1.0 mL/min and 20 μL, respectively. The mobile phase consisted of 30 mM ammonium acetate in DW (pH 6.0) and methanol (30:70, v/v). The absorption wavelength was set to 238 nm for detection and the retention time of QTP was 14 min [23].
The QTP base precipitate was prepared using a previously reported desalting method with a slight modification. Briefly, QTP hemifumarate (10 mg) was solubilized in a 1 N HCl solution (0.7 mL), and then, a 1 N NaOH solution (0.8 mL) was added for precipitating the QTP base. The sample was then centrifuged at 16,000× g for 5 min and the supernatant portion was eliminated. After adding 1 mL of DW to the precipitate, it was centrifuged again, and the supernatant was removed. Finally, the QTP base precipitate was freeze-dried at −70 °C for 48 h for further use.

Data set [4] deals with T1, HAase (from bovine testes) (Bos taurus, UniProt Q2YDK3).
T1 construct: purchased Sigma-Aldrich Co. (St. Louis, MO, USA); host or cells: bovine testes (tissue-derived preparation)
T1 sequence (Q2YDK3 36-553): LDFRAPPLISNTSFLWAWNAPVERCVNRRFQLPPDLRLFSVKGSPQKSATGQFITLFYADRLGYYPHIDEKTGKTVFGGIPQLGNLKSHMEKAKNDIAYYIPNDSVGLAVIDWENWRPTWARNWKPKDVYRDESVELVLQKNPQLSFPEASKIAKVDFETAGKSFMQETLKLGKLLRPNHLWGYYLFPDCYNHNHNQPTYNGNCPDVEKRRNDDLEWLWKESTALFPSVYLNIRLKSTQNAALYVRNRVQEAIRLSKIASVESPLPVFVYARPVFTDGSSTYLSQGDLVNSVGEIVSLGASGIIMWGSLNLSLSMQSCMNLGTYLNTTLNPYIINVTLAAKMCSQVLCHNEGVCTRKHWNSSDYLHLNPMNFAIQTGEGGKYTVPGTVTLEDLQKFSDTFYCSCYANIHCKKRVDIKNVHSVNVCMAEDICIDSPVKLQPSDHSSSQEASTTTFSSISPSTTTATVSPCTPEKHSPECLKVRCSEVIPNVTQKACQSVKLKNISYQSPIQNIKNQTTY
Kind of data set: In vitro degradation of cHA hydrogels in PBS containing HAase. It is filed as in vitro ADME. Conditions: QCT loaded in cHA hydrogels, 8 h, 5 U/mL HAase. Here is the method:
The in vitro degradation feature of the cHA hydrogel structures was investigated by monitoring the mass change of the hydrogels compared to their initial weight according to a previously reported, slightly modified method. Briefly, to evaluate the weight change of the cHA and QCT-loaded cHA hydrogels (i.e., cHA/QCT1, cHA/QCT3, and cHA/QCT5), each gel specimen (approximately 1.1 g) was placed into 10 mL of a PBS solution containing 5 U/mL of HAase. Upon immersion in the media, the weight of the hydrogels was measured at 2, 4, 6, and 8 h. The remaining weight percentage (%) of each hydrogel compared to the initial weight was recorded.

The term solubility denotes the concentration that dissolves in the medium under given conditions.

On to `OCCOCCN1CCN(C2=Nc3ccccc3Sc3ccccc32)CC1` [QTP, quetiapine], for which, in data set [1], the Biological half-life is 2.1 h. Moreover, in data set [2], the “QTP diffused from the dialysis membrane” value is “over 90%”.
For the molecule `O=c1c(O)c(-c2ccc(O)c(O)c2)oc2cc(O)cc(O)c12` [QCT, quercetin], the solubility in data set [3] (ethanol, organic solvent or mixture, EtOH, read-out: Solubility in EtOH) is 17.6 ± 1.05 mg/mL (≈ 58.4 mM); in data set [3] (water, read-out: Solubility in water), below 0.01 mg/mL. For the same molecule, the HAase inhibition result in data set [4] is listed as “inhibited HAase in a dose-dependent manner”.
`OCCOCCN1CCN(C2=Nc3ccccc3Sc3ccccc32)CC1` [QTP base, quetiapine]: the solubility at 1 day in data set [3] (ethanol, organic solvent or mixture, thermodynamic from solid, EtOH, Figure 2A) was above 50 mg/mL.
